Among the data in patent US6451796B1, “Fused pyrazine compounds” (Ono Pharmaceutical Co., Ltd., priority 1997, dated 2002) are IC50 values, retold here.

Common to all, as to format: cell-based
Data set [1] can be described thus: Cytotoxicity test by MTT assay. To be noted: human; EC treated under conditions identical to adhesion molecule expression measurement; MTT 3 hours. The procedure:
Furthermore, MTT [3-(4,5-dimethyl-2-thiazolyl)-2,5-diphenyl-2H-tetrazolium bromide] assay was enforced and the number of living cells was counted in order to estimate the effect of compound not to depend cytotoxicity on the above evaluation system.
(2) Cytotoxicity Test by MTT Assay
EC Were treated under conditions identical to those employed for measurement of adhesion molecules expression. After incubation, the wells were washed with PBS(−) once, added 100 μl of MTT solution (1 mg/ml) and incubated for 3 hours. After incubation supernatants were discarded and 100 μl of methanol added. After stirring, OD of each well read at 570 nm/690 nm in immunoreader. Inhibitory percentage was calculated as follows and IC50 value was estimated by percentage for control.
Inhibitory percentage (%)=[(C−S)/C)]×100
(§1) C: OD of the sample stimulated by cytokines
(§2) S: OD of the sample stimulated by cytokines in the presence of test compound

The subject of the next data set is VCAM-1 expression. Kind of data set: Inhibition of VCAM-1 expression in HUVEC (cell ELISA). The settings on record: Homo sapiens; HUVEC stimulated with TNFα plus IL-4 for 6 hours, ELISA of surface expression. The procedure:
(§3) (1) Inhibition of Adhesion Molecules Expression in HUVEC
(§4) Human umbilical vein endothelial cells were cultured using MCDB104 medium (Nissui) containing 5% Fetal bovine serum supplemented antibiotics (100 U/ml penicillin, 100 μg/ml streptomycin (Gibco)), 0.01 mg/ml heparin (Nissui) and 0.005 mg/ml endothelial cells (EC) growth factor (Nissui) in gelatin coated 96-well microtiter plates by resulting in confluent monolayers.
(§5) The compounds were dissolved in dimethyl sulfoxide and prepared final 0.2% concentration in the medium and then added 50 μl into the well. Cytokine stimulation of EC was performed by adding 50 μl of 10 ng/ml TNFα (Genzyme) (for E-selectin. and ICAM-1 expression) or 50 μl of 10 ng/ml TNFα plus 1 ng/ml IL-4 (Genzyme)(for VCAM- expression).
(§6) After stimulation for 6 hours, the wells were washed with PBS(−) once and EC monolayers were fixed by incubating with methanol containing 0.3% hydrogen peroxide for 10 minutes at room temperature. After washing with PBS(−) three times, an ELISA was used to measure the expression of adhesion molecules on EC surface. The ELISA was performed at room temperature with three times washes with PBS(−) between each step. EC were incubated for 30 minutes in turn with 100 μl primary antibody which were anti-ICAM-1 antibody (BBA4), anti-E-selectin antibody (BBA2) or anti-VCAM-1 antibody (BBA6) (mouse IgG1, 1.25 μl/ml; R&D), with 100 μl of secondary antibody which was goat anti-mouse IgG conjugated peroxidase (dilution (1/400); Nordic Immunological laboratories). The enzyme substrate 1 mg/ml o-phenylenediamine/2HCl and 0.1% hydrogen peroxide of 100 μl was added and incubated for 4 minutes at room temperature.
(§7) Reaction was stopped with 50 μl of 8N sulfuric acid and optical density (OD) of each well read at 490 nm in immunoreder. Inhibitory percentage was calculated as follows and IC50 value was estimated by percentage for control.
(§8) Inhibitory percentage (%)=[(C−S)/(C−B)]×100
as §1, §2
(§9) B: OD of the nonstimulated sample

The next data set concerns E-selectin expression. Kind of data set: Inhibition of E-selectin expression in HUVEC (cell ELISA). The settings on record: Homo sapiens; HUVEC stimulated with TNFα for 6 hours, ELISA of surface expression. On the procedure: as §3, §4, §5, §6, §7, §8, §1, §2, §9
In a further data set the test system is ICAM-1 expression. Kind of data set: Inhibition of ICAM-1 expression in HUVEC (cell ELISA). The settings on record: Homo sapiens; HUVEC stimulated with TNFα for 6 hours, ELISA of surface expression. On the procedure: as §3, §4, §5, §6, §7, §8, §1, §2, §9

For the molecule `FC(F)(F)c1nnc2c(Sc3ccccc3)nc3ccccc3n12` [Compound (12), 4-Phenylthio(5-trifluoromethyl-1,2,4-triazolo)-[4,3-a]quinoxaline], the IC50 in data set [1] is more than 50000 nM; in the data set with VCAM-1 expression it was 0.95 µM; in the data set with E-selectin expression, 1.04 µM; in the data set with ICAM-1 expression, 0.95 µM.
Regarding `CC(C)Sc1nc2cccnc2n2c(C(F)(F)F)nnc12` [Example 3(16), 4-Isopropylthio-(5-trifluoromethyl-1,2,4-triazolo)[3,4-c]1,4,5-triazanaphthalene], the IC50 in data set [1] is more than 100000 nM; with VCAM-1 expression it was 0.032 µM; in the data set on E-selectin expression it was 0.103 µM; in the data set on ICAM-1 expression it was 0.073 µM.
In the case of `OCCCCCSc1nc2ccc(Cl)cc2n2c(C(F)(F)F)nnc12` [Example 3(73), 8-Chloro-4-(5-hydroxypentyl)thio-(5-trifluoromethyl-1,2,4-triazolo)[4,3-a]quinoxaline], the IC50 in data set [1] was more than 25000 nM; in the data set on VCAM-1 expression, 0.2 µM; in the data set on E-selectin expression, 0.6 µM; in the data set on ICAM-1 expression it was 0.4 µM.
